Assay results as given in patent publication US4209443A, “Process for separating pharmaceutically active diindole alkaloids” (priority 1976, dated 1980).
Where a name gives a salt, the structure may show the parent alone.

What was measured:
[1] = system: tumors resistant towards the cytostatic agents known before; settings: Hungarian Patent specification No. 165,986; cited from earlier work
mice = assay: Toxicity (LD50, i.p., mice)
[2] = system: L 1210/Ref (vinca-refractory) mouse lymphoid leukemia; assay: Average survival prolongation and tumor-inhibiting effect, L 1210/Ref (vinca-refractory) lymphoid leukemia, i.p.; format: in vivo, mouse (BDF1 mice); settings: for On the limit-day (days 36 to day 40): lives / On the limit-day (days 36 to day 40): tumor-free / T/c × 100 / Average survival period, treated: 7 treatments; for Average survival period, treated: control 8.0 days
Method: (§1) The pharmacological tests were performed on transplantable tumors of rats and mice. The effects on L 1210/VS(vinca-sensitive) mouse lymphoid leukemia and L 1210/Ref (vinca-refractory) mouse lymphoid leukemia were tested on BDF1 mice, the effects on Ehrlich ascites carcinomatous tumors and S 37 ascites sarcomatous tumors were examined on Swiss mice, whereas the effects on Novikoff hepatoma were examined on Wistar rats.
(§2) The 4-deacetoxy-vinblastine sulfate was dissolved in physiological saline and the solution was administered intraperitoneally into the animals to be tested. In the tests the average prolongation of survival period and the tumor-inhibiting effect were examined in relation to the untreated controls. In the Table the symbol T/c represents the ratio of treated animals to the controls, and the term "number of limit-days" means the fourfold of the average survival period observed in the control group.

[3] = system: L 1210/VS (vinca-sensitive) mouse lymphoid leukemia; assay: Average survival prolongation and tumor-inhibiting effect, L 1210/VS (vinca-sensitive) lymphoid leukemia, i.p.; format: in vivo, mouse (BDF1 mice)
Method: as §1, §2

S 37 ascites sarcoma = assay: Average survival prolongation and tumor-inhibiting effect, S 37 ascites sarcoma, i.p.; format: in vivo, mouse (Swiss mice); settings: once a day, 8 treatments; for Average survival period, treated: control 18.2 days
Method: as §1, §2

[4] = Neurotoxicity accompanied with paralytic symptoms; format: in vivo; settings: during administration
Novikoff hepatoma = assay: Average survival prolongation and tumor-inhibiting effect, Novikoff hepatoma, i.p.; format: in vivo, rat (Wistar rats); settings: for On the limit-day (days 36 to day 40): lives / On the limit-day (days 36 to day 40): tumor-free / T/c × 100 / Average survival period, treated: once a day, 8 treatments
Method: as §1, §2

HK/Ly ascites lymphoma = assay: Average survival prolongation and tumor-inhibiting effect, HK/Ly ascites lymphoma, i.p.; format: in vivo; settings: once a day, 8 treatments; for Average survival period, treated: control 14.4 days
Method: as §2

[5] = system: Ehrlich ascites carcinoma; assay: Average survival prolongation and tumor-inhibiting effect, Ehrlich ascites carcinoma, i.p.; format: in vivo, mouse (Swiss mice); settings: 3.0 mg/kg i.p., once a day, 9 treatments
Method: as §1, §2

[6] = system: transplantable tumors of rats and mice; assay: Tumor-inhibiting effect on transplantable tumors of rats and mice; format: in vivo
Method: as §1, §2

[7] = Toxicity (LD50, i.p., mice); settings: mouse, in vivo, ip
[8] = known vinca alkaloids; cited from earlier work
in vivo = settings: mouse, ip
[9] = 4.0 mg/kg i.p., once in every two days
[10] = 0.9 mg/kg i.p., once a day, 7 treatments
[11] = 1.8 mg/kg i.p., once a day, 7 treatments
[12] = 2.0 mg/kg i.p., once a day, 16 treatments
[13] = 4.0 mg/kg i.p., once a day, 16 treatments
[14] = 4.0 mg/kg i.p., once in every two days, 8 treatments
[15] = 4.0 mg/kg i.p., once in every two days, 11 treatments
[16] = 5.0 mg/kg i.p., once in every two days, 8 treatments
[17] = 6.0 mg/kg i.p., once in every two days, 8 treatments

In the case of CC[C@]12CN3CCc4c([nH]c5ccccc45)[C@@](C(=O)OC)(c4cc5c(cc4OC)N(C=O)[C@H]4[C@@](O)(C(=O)OC)[C@H](OC(C)=O)[C@]6(CC)C=CCN7CC[C@]54[C@@H]76)C[C@@H](C3)[C@H]1O2 [N-Formyl-leurosine, reference compound], the “growth inhibition of tumors resistant towards the cytostatic agents known before” value [1] is given as “inhibits the growth of tumors resistant towards the cytostatic agents known before” and the LD50 (mice; i.p., mice) is given as 29.0 mg/kg.
In the case of CC[C@]1(O)C[C@@H]2CN(CCc3c([nH]c4ccccc34)[C@@](C(=O)OC)(c3cc4c(cc3OC)N(C)[C@@H]3[C@]45CCN4CC=C[C@@](CC)(C[C@]3(O)C(=O)OC)[C@H]45)C2)C1 [4-deacetoxy-vinblastine sulfate, 4-Deacetoxy-vinblastine sulfate], the “On the limit-day (days 36 to day 40): lives” value (from here on “On the limit-day … lives”) ([2]; 2.0 mg/kg i.p., once a day) is reported as 0/6, the “On the limit-day (days 36 to day 40): tumor-free” value (shortened to “On the limit-day … tumor-free”) ([2]; 2.0 mg/kg i.p., once a day) is reported as 0/6 and the “T/c × 100” value ([2]; 2.0 mg/kg i.p., once a day) is reported as 119. The “Average survival period, treated” value ([2]; 2.0 mg/kg i.p., once a day) was 9.5 days, the “On the limit-day … lives” value ([2]; 4.0 mg/kg i.p., once a day) was 0/6 and the “On the limit-day … tumor-free” value ([2]; 4.0 mg/kg i.p., once a day) was 0/6. For the same compound, the “T/c × 100” value ([2]; 4.0 mg/kg i.p., once a day) was 144, the “Average survival period, treated” value ([2]; 4.0 mg/kg i.p., once a day) was 11.5 days and the “On the limit-day … lives” value [2, 9] was 0/6. The “On the limit-day … tumor-free” value [2, 9] was 0/6, the “T/c × 100” value [2, 9] was 146 and the “Average survival period, treated” value [2, 9] was 11.7 days. The “On the limit-day … lives” value [3, 10] was 0/6, the “On the limit-day … tumor-free” value [3, 10] was 0/6 and the “T/c × 100” value [3, 10] was 128. The “Average survival period, treated” value ([3]; 0.9 mg/kg i.p., once a day, 7 treatments, control 8.8 days) was 11.5 days, the “On the limit-day … lives” value [3, 11] was 0/6 and the “On the limit-day … tumor-free” value [3, 11] was 0/6. For the same compound, the “T/c × 100” value [3, 11] was 128, the “Average survival period, treated” value ([3]; 1.8 mg/kg i.p., once a day, 7 treatments, control 8.8 days) was 11.3 days and the “On the limit-day … lives” value [3, 12] was 0/6. For the same compound, the “On the limit-day … tumor-free” value [3, 12] was 0/6, the “T/c × 100” value [3, 12] was 238 and the “Average survival period, treated” value ([3]; 2.0 mg/kg i.p., once a day, 16 treatments, control 10.3 days) was 24.5 days. For the same compound, the “On the limit-day … lives” value [3, 13] was 0/6, the “On the limit-day … tumor-free” value [3, 13] was 0/6 and the “T/c × 100” value [3, 13] was 269. For the same compound, the “Average survival period, treated” value ([3]; 4.0 mg/kg i.p., once a day, 16 treatments, control 10.3 days) was 27.7 days, the “On the limit-day … lives” value [3, 14] was 0/6 and the “On the limit-day … tumor-free” value [3, 14] was 0/6. For the same compound, the “T/c × 100” value [3, 14] was 213, the “Average survival period, treated” value ([3]; 4.0 mg/kg i.p., once in every two days, 8 treatments, control 8.3 days) was 17.7 days and the “On the limit-day … lives” value [3, 15] was 0/6. The “On the limit-day … tumor-free” value [3, 15] was 0/6, the “T/c × 100” value [3, 15] was 267 and the “Average survival period, treated” value ([3]; 4.0 mg/kg i.p., once in every two days, 11 treatments, control 10.3 days) was 27.5 days. The “On the limit-day … lives” value [3, 16] was 0/6, the “On the limit-day … tumor-free” value [3, 16] was 0/6 and the “T/c × 100” value [3, 16] was 251. The “Average survival period, treated” value ([3]; 5.0 mg/kg i.p., once in every two days, 8 treatments, control 8.3 days) was 20.8 days, the “On the limit-day … lives” value [3, 17] was 0/6 and the “On the limit-day … tumor-free” value [3, 17] was 0/6. The “T/c × 100” value [3, 17] was 291, the “Average survival period, treated” value ([3]; 6.0 mg/kg i.p., once in every two days, 8 treatments, control 8.3 days) was 24.2 days and the “On the limit-day … lives” value (S 37 ascites sarcoma; 1.8 mg/kg i.p.) was 6/8. For the same compound, the “On the limit-day … tumor-free” value (S 37 ascites sarcoma; 1.8 mg/kg i.p.) was 6/8, the “T/c × 100” value (S 37 ascites sarcoma; 1.8 mg/kg i.p.) was 376 and the “Average survival period, treated” value (S 37 ascites sarcoma; 1.8 mg/kg i.p.) was 68.5 days. For the same compound, the “On the limit-day … lives” value (S 37 ascites sarcoma; 2.7 mg/kg i.p.) was 7/10, the “On the limit-day … tumor-free” value (S 37 ascites sarcoma; 2.7 mg/kg i.p.) was 7/10 and the “T/c × 100” value (S 37 ascites sarcoma; 2.7 mg/kg i.p.) was 373. The “Average survival period, treated” value (S 37 ascites sarcoma; 2.7 mg/kg i.p.) was 67.9 days, the “Neurotoxicity accompanied with paralytic symptoms” value [4] was “does not appear at all” and the “On the limit-day … lives” value (Novikoff hepatoma; 0.5 mg/kg i.p.) was 0/6. The “On the limit-day … tumor-free” value (Novikoff hepatoma; 0.5 mg/kg i.p.) was 0/6, the “T/c × 100” value (Novikoff hepatoma; 0.5 mg/kg i.p.) was 126 and the “Average survival period, treated” value (Novikoff hepatoma; 0.5 mg/kg i.p., control 8.2 days) was 10.3 days. For the same compound, the “On the limit-day … lives” value (Novikoff hepatoma; 1.0 mg/kg i.p.) was 1/6, the “On the limit-day … tumor-free” value (Novikoff hepatoma; 1.0 mg/kg i.p.) was 1/6 and the “T/c × 100” value (Novikoff hepatoma; 1.0 mg/kg i.p.) was 338. For the same compound, the “Average survival period, treated” value (Novikoff hepatoma; 1.0 mg/kg i.p., control 8.2 days) was 27.7 days, the “On the limit-day … lives” value (Novikoff hepatoma; 1.5 mg/kg i.p.) was 2/6 and the “On the limit-day … tumor-free” value (Novikoff hepatoma; 1.5 mg/kg i.p.) was 0/6. For the same compound, the “T/c × 100” value (Novikoff hepatoma; 1.5 mg/kg i.p.) was 317, the “Average survival period, treated” value (Novikoff hepatoma; 1.5 mg/kg i.p., control 7.8 days) was 24.7 days and the “On the limit-day … lives” value (HK/Ly ascites lymphoma; 2.0 mg/kg i.p.) was 0/10. For the same compound, the “On the limit-day … tumor-free” value (HK/Ly ascites lymphoma; 2.0 mg/kg i.p.) was 0/10, the “T/c × 100” value (HK/Ly ascites lymphoma; 2.0 mg/kg i.p.) was 334 and the “Average survival period, treated” value (HK/Ly ascites lymphoma; 2.0 mg/kg i.p.) was 48.1 days. For the same compound, the “On the limit-day … lives” value (HK/Ly ascites lymphoma; 4.0 mg/kg i.p.) was 6/10, the “On the limit-day … tumor-free” value (HK/Ly ascites lymphoma; 4.0 mg/kg i.p.) was 0/10 and the “T/c × 100” value (HK/Ly ascites lymphoma; 4.0 mg/kg i.p.) was 382. For the same compound, the “Average survival period, treated” value (HK/Ly ascites lymphoma; 4.0 mg/kg i.p.) was 55.0 days, the “On the limit-day … lives” value (HK/Ly ascites lymphoma; 6.0 mg/kg i.p.) was 0/10 and the “On the limit-day … tumor-free” value (HK/Ly ascites lymphoma; 6.0 mg/kg i.p.) was 0/10. For the same compound, the “T/c × 100” value (HK/Ly ascites lymphoma; 6.0 mg/kg i.p.) was 328, the “Average survival period, treated” value (HK/Ly ascites lymphoma; 6.0 mg/kg i.p.) was 47.2 days and the “On the limit-day … lives” value [5] was 10/10. For the same compound, the “On the limit-day … tumor-free” value [5] was 6/10, the “T/c × 100” value [5] was 174 and the “Average survival period, treated” value ([5]; control 17.4 days) was 30 days. The “tumor-inhibiting effects compared with vinblastine” value ([6]; compared with vinblastine) was “roughly identical with those of vinblastine” and the “toxicity compared with vinblastine” value (mice; compared with vinblastine) was “far less toxic than vinblastine”.
For CC[C@]1(O)C[C@@H]2CN(CCc3c([nH]c4ccccc34)[C@@](C(=O)OC)(c3cc4c(cc3OC)N(C)[C@@H]3[C@]45CCN4CC=C[C@@](CC)(C[C@]3(O)C(=O)OC)[C@H]45)C2)C1 [4-Deacetoxy-vinblastine, 4-deacetoxy-vinblastine], the “sensitivity of L 1210/Ref leukemia” value ([2]; mouse, in vivo) was “not sensitive”, the “inhibiting effect on Novikoff hepatoma” value (Novikoff hepatoma; relative to the other transplanted tumors) was “most intensive” and the “inhibiting effect on all the other transplanted tumors” value ([6]; all transplanted tumors other than L 1210/Ref) was “significant dosage-dependent inhibiting effect”. The LD50 [7] was > 23 mg/kg.
For CC[C@]1(O)C[C@H]2CN(CCc3c([nH]c4ccccc34)[C@@](C(=O)OC)(c3cc4c(cc3OC)N(C=O)[C@H]3[C@@](O)(C(=O)OC)[C@H](OC(C)=O)[C@]5(CC)C=CCN6CC[C@]43[C@@H]65)C2)C1 [Vincristine, vincristine, reference compound], the “Neurotoxicity accompanied with paralytic symptoms (known side-effect)” value [8] is listed as “characteristic adverse side-effect” and the LD50 [7] is listed as 4.2 mg/kg.
For CC[C@]1(O)C[C@@H]2CN(CCc3c([nH]c4ccccc34)[C@@](C(=O)OC)(c3cc4c(cc3OC)N(C)[C@H]3[C@@](O)(C(=O)OC)[C@H](OC(C)=O)[C@]5(CC)C=CCN6CC[C@]43[C@@H]65)C2)C1 [Vinblastine, vinblastine], the “Neurotoxicity accompanied with paralytic symptoms (known side-effect)” value [8] is given as “characteristic adverse side-effect” and the LD50 (in vivo) is given as 7.5 mg/kg.
